Measured values as given in US20230285570A1, “THERAPEUTICALLY USEFUL CURE-PRO MOLECULES FOR E3 LIGASE MEDIATED DEGRADATION OF PROTEINS, AND METHODS OF MAKING AND USING THEM” (CORNELL UNIVERSITY, priority 2020, published 2023).
Entries after “also recorded” stand apart in the source; their conditions may differ.

What was measured:
Format in all cases: cell-based
BRD4 [1] = target: T1, BRD4 (Homo sapiens, UniProt O60885); assay: Summary of BRD4 degradation by CURE-PRO pairs, estimated from Western Blot or WES; design: endogenous in cells; conditions: for Degradation of BRD4, combination with CRBN ligand 8047: Table 1, aryl-boronic acid BRD4 ligand + 8047
How it was run: (§1)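 Degradation read-out from immunoblot with ECL, or WES capillary electrophoresis with HRP detection, of RIPA lysates. Cells (Namalwa, Ramos, HeLa, MCF7, HT29 or HCT116) were exposed to DMSO-solubilized compounds for 24 h; a check mark marks 30% to 70% or higher degradation.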

BRD4 [2] = target: T1, BRD4; assay: CURE-PRO-mediated BRD4 degradation in MCF7 cells, Western blot; design: endogenous in cells; conditions: 1:1 with VHL ligand 8305, MCF7, 24 h, 100 nM-10 μM
Experimental: (§2) Namalwa, Ramosm HeLa, MCF7, or HT29 HCT116 cells (2.5-3×10^6) were treated for 24 hours with the indicated compounds solubilized in DMSO. The cells were washed in ice-cold PBS and were then lysed in RIPA lysis buffer (150 mM NaCl, 5 mM EDTA, 1% NP-40, 0.5% sodium deoxycholate, 0.1% SDS, 50 mM Tris, pH 8.0.) with Roche protease inhibitor complete cocktail and phosphatase inhibitors (10 mM sodium fluoride, 10 mM sodium pyrophosphate, 1 mM sodium orthovanadate and 20 mM β-glycerophosphate). The total protein concentrations were determined by Bradford Protein Assay (Pierce) and 10-20 μg of protein was loaded onto 4-15% Tris-Glycine gradient gels (Biorad). After standard gel electrophoresis, the separated proteins were transferred to PVDF membrane by wet transfer. The immunoblots were then blocked for 1 hour in 5% skim milk in TBST or 5% BSA in TBST, according to manufacturer's instructions, before an overnight incubation at 4° C. with indicated antibodies and membranes. Membranes were then incubated with the appropriate horseradish peroxidase-conjugated secondary antibodies (1:5,000 dilution) for 1 h at room temperature and the bands were visualized using the Clarity Max Western ECL Substrate (Biorad) and the ChemiDoc Imaging System (Biorad). Signal was detected with ECL Western Blotting Substrate (Pierce) and X-ray film processed with a Konica SRX-101 X-ray film processor or captured by Bio-Rad's Chemidoc Imaging system.
MCF7 cells (3×10^6) were treated for 24 h with the compounds solubilized in DMSO. Compounds were added at 100 nM-10 μM. Standardized protein samples were electrophoresed and imaged as described in the Immunoblotting section above. FIG. 69 depicts the CURE-PRO-mediated BRD4 degradation for the BRD-E9 monomer and VHL ligands 8305 combined in a 1:1 ratio, and FIG. 70 depicts the CURE-PRO-mediated BRD4 degradation for the BRD-E20 monomer and 8305.
MCF7 cells (3×10^6) were treated for 24 h with the compounds solubilized in DMSO. Compounds were added at 1 μM-10 μM. Standardized protein samples were electrophoresed and imaged as described in the Immunoblotting section above. FIG. 71 depicts the CURE-PRO-mediated BRD4 degradation for the BRD-E50 monomer and VHL ligands 8305 and 8304 combined in a 1:1 ratio.

BRD4 [3] = target: T1, BRD4; assay: CURE-PRO-mediated BRD4 degradation in HeLa cells, Western blot; design: endogenous in cells; host or cells: HeLa; conditions: 24 h
How it was run: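 HeLa cells (2.5×10^6) treated 24 h with DMSO-solubilized compounds, degrader pairs combined 1:1, at 1 nM-1 μM, 1-10 μM, 10 μM or 10 and 100 μM each depending on series. RIPA lysates (10-20 μg protein) run on SDS-PAGE and immunoblotted for BRD4 with ECL detection.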

caspase 3/7 = assay: Caspase-Glo 3/7 assay, Namalwa cells; conditions: 1:1 with CRBN ligand 8047, Namalwa, 24 h
Experimental: Caspase-glo® assay (Promega) was conducted following the manufacturer's recommendations. Cells were seeded at a density of 5000 cells/well in a white 96 well plates (Corning, #3917) in a total volume of 100 μl with respective monomers, combinations of BRD ligands together with E3 ligase ligands or vehicle control treatment. After a 24 h incubation, 100 μl of the […] substrate was added per well and luminescence was read on a Spectramax M5 (Molecular Devices).
Namalwa cells (5×10^4) were treated for 24 hours with the compounds solubilized in DMSO. FIG. 57 is a bar graph depiction of fold increase of apoptosis assessed via caspase 3/7 activity using the Caspase-Glo assay (Promega) described above.
Molm-13 (FIG. 76A) or Namalwa (FIG. 76B) cells (5×10^4) were treated for 24 hours with the compounds solubilized in DMSO in white 96 well plates (10 nM-10 μM solubilized in DMSO). FIG. 76 is a bar graph depiction of fold increase of apoptosis assessed via caspase 3/7 activity using the Caspase-Glo assay (Promega) described above.

BRD4 [4] = target: T1, BRD4; assay: CURE-PRO-mediated BRD4 degradation in HeLa cells, WES capillary electrophoresis (ProteinSimple); design: endogenous in cells; host or cells: HeLa
Experimental: All cell lines were purchased from ATCC or DSMZ and grown at 37° C. with 5% CO2. Human HeLa cells were cultured in complete growth medium (Dulbecco's modified Eagle's medium (DMEM) supplemented with 10% FBS); MCF7 cells were cultured in complete growth medium (Dulbecco's modified Eagle's medium (DMEM) supplemented with 10% FBS and 0.01 mg/ml human recombinant insulin (Sigma Aldrich); Namalwa and Ramos cells were cultured in complete growth medium (RPMI 1640 medium supplemented with 10% FBS); HCT116 and HT29 cells were cultured in complete growth medium (McCoy's 5a Medium supplemented with 10% FBS). For cellular degradation of BRD4 studies cells were seeded in a 12-well plate at 70-80% confluency, allowed to attach overnight, and incubated with the indicated compounds for the indicated time. When indicated, a 15-minute pretreatment with 10 μM pomalidomide, 10 μM VHL298, 10 μM Nutlin3a, 1 μM MG-132 or 1 μM Carfilzomib was performed before the addition of CURE-PROs. For washout studies, after CURE-PRO treatment, media was aspirated and incubated with complete medium for the indicated time before lysis.
(§3) WES Simple analysis was performed on WES system (ProteinSimple-Biotechne) according to the manufacturer's instructions. Total protein concentrations of cell lysates were determined by the Pierce BCA kit (Thermo Fisher). 3 μL of 0.3 μg/μL of the protein lysate was loaded onto a 12- to 230-kDa WES assay plate (ProteinSimple) where 300 nL sample was withdrawn through a capillary, subjected to electrophoretic separation of proteins by size, and followed by the simultaneous, HRP-based detection of proteins using the Anti-Rabbit Detection Module (Proteinsimple: #DM-001). The electropherograms were checked then the automatic peak detection was manually corrected if it was required.
HeLa cells (2.5×10^6) were treated for 4-24 hours with the compounds solubilized in DMSO. After 4 hours, indicated points were washed and cells were left in full growth media. Compounds were added at 10 μM each. Standardized protein samples were electrophoresed and imaged as described in the WES ProteinSimple section above. FIGS. 44 and 45 depict the time-dependence of CURE-PRO-mediated BRD4 degradation with the BRD-E52 ligand (FIG. 44) and BRD-E72 ligand (FIG. 45), both JQ1 derivatives comprising of boronic acid linkers, and the CRBN binding ligands (8046, 8047, and 8066), pomalidomide derivatives comprising diol linkers.
HeLa cells (2.5×10^6) were treated for 24 hours with the compounds solubilized in DMSO. Compounds were added at 100 nM-10 μM each. Standardized protein samples were electrophoresed and imaged as described in the WES ProteinSimple section above. FIG. 46 depicts the concentration-dependence of CURE-PRO-mediated BRD4 degradation and the requirement for monomer dimerization.

c-MYC [5] = target: T2, c-MYC (Homo sapiens, UniProt P01106); assay: Summary of C-MYC degradation by CURE-PRO pairs, estimated from Western Blot or WES; design: endogenous in cells; host or cells: HT29; conditions: for Degradation of C-MYC, combination with MDM2 ligand 8310: Table 11, aromatic 1,2-diol MYC ligand + 8310; for Degradation of C-MYC, combination with MDM2 ligand 8312: Table 11, aromatic 1,2-diol MYC ligand + 8312
T2 sequence (P01106 whole entry): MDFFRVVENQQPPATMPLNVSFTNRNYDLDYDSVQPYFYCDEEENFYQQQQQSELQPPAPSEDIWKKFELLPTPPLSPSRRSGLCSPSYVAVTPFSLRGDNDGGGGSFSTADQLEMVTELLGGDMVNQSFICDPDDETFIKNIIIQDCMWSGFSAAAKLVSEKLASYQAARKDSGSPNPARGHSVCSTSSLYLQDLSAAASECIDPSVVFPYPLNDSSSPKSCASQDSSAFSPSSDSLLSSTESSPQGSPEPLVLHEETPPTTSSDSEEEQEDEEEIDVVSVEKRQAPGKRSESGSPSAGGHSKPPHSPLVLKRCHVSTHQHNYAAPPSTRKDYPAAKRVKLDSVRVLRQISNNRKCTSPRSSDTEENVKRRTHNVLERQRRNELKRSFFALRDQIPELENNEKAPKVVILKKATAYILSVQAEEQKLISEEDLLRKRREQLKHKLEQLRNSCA
How it was run: as §1

c-MYC [6] = target: T2, c-MYC; assay: CURE-PRO-mediated c-MYC degradation in HCT1116 cells, Western blot or WES; design: HT29 cells (2.5×10^6) were treated for 24 h with the compounds solubilized in DMSO; endogenous in cells; host or cells: HT29; conditions: 1:1 with MDM2 ligand 8310, HCT1116, 24 h, 10 nM-10 μM each
c-MYC [7] = target: T2, c-MYC; assay: as above; design: endogenous in cells; host or cells: HT29; conditions: 1:1 with MDM2 ligand 8312, HCT1116, 24 h, 10 nM-10 μM each
Experimental: as §2, §3
HCT1116 cells (2.5×10^6) were treated for 24 h with the compounds solubilized in DMSO. Compounds were added at 10 nM-10 μM each. Standardized protein samples were electrophoresed and imaged as described in the immunoblotting or WES (Proteinsimple) sections above. c-MYC monomers, MYC-N20 (FIG. 100, a 10074-G5 derivative comprising diol linkers), and MYC-N10 (FIG. 101), MYC-N6 (FIG. 102), and MYC-N9 (FIG. 103) (10058-F4 derivatives comprising diol linkers), and MDM2 ligands, 8310 and 8312 (Nutlin 3a derivatives comprising boronic acid linkers) were combined in a 1:1 ratio.
HCT1116 cells (2.5×10^6) were treated for 24 h with the compounds solubilized in DMSO. Compounds were added at 1 μM-10 μM each.

COc1ccc2c(c1)C(c1ccc(Cl)cc1)=N[C@@H](CC(=O)NCc1ccc(B(O)O)cc1)c1nnc(C)n1-2 [BRD-E9, (4-((2-((4S)-6-(4-chlorophenyl)-8-methoxy-1-methyl-4H-benzo[f][1,2,4]triazolo[4,3-a][1,4]diazepin-4-yl)acetamido)methyl)phenyl)boronic acid]
Degradation of BRD4, combination with CRBN ligand 8047 (BRD4 [1]): √ (A black check mark indicates efficacy of 30% to 70% or higher protein degradation)
Degradation of BRD4, combination with VHL ligand 8305 (BRD4 [1]; Table 3, aryl-boronic acid BRD4 ligand + 8305): √ (A black check mark indicates efficacy of 30% to 70% or higher protein degradation)
BRD4 degradation (BRD4 [2]): there is degradation of BRD4

CCNC(=O)C[C@@H]1N=C(c2ccc(Sc3cccc(B(O)O)c3)cc2)c2cc(OC)ccc2-n2c(C)nnc21 [BRD-E52, (3-((4-((4S)-4-(2-(ethylamino)-2-oxoethyl)-8-methoxy-1-methyl-4H-benzo[f][1,2,4]triazolo[4,3-a][1,4]diazepin-6-yl)phenyl)thio)phenyl)boronic acid]
BRD4 degradation after pomalidomide preincubation (BRD4 [3]; 1:1 with 8047, 10 μM, pomalidomide preincubated 15 min at equimolar concentration): inhibition of CURE-PRO-mediated BRD4 degradation
BRD4 degradation (BRD4 [3]; BRD ligand with pomalidomide (no 8047), HeLa, 10 μM): failed to induce BRD4 degradation
BRD4 degradation (BRD4 [3]; co-treated 1:1 with CRBN ligand 8047, HeLa, 10 μM each): causes degradation of BRD4; also recorded: CURE-PRO-mediated degradation of BRD4
Degradation of BRD4, combination with CRBN ligand 8047 (BRD4 [1]): √ (A black check mark indicates efficacy of 30% to 70% or higher protein degradation)
Degradation of BRD4, combination with CRBN ligand 8066 (BRD4 [1]; Table 1, aryl-boronic acid BRD4 ligand + 8066): √ (A black check mark indicates efficacy of 30% to 70% or higher protein degradation)
caspase 3/7 activation (caspase 3/7): demonstrates activation of caspase 3/7; also recorded: marked caspase activation
sustained BRD4 degradation after drugs are washed out (BRD4 [4]; co-dosed with 8047, 10 μM each, washed after 4 h): up to 8 h
BRD4 degradation, time course (BRD4 [4]; co-dosed with CRBN ligand 8047, HeLa, 10 μM each, 4-24 h): marked BRD4 degradation after 4 h
concentration-dependent BRD4 degradation (BRD4 [4]; co-dosed with CRBN ligand 8047, HeLa, 24 h, 100 nM-10 μM each): marked BRD4 degradation
concentration from which BRD4 protein expression decreases (BRD4 [4]; with CRBN ligand 8047, HeLa, 24 h, 100 nM-10 μM each): ≥ 300 nM

CCc1ccc(/C=C2\SC(=O)N(CCCc3cccc(O)c3O)C2=O)cc1 [MYC-N6]
Degradation of C-MYC, combination with MDM2 ligand 8310 (c-MYC [5]): √ (A black check mark indicates efficacy of 30% to 70% or higher protein degradation)
c-MYC degradation (c-MYC [6]): caused degradation of c-MYC protein; also recorded: Degradation was noted

CCc1ccc(/C=C2\SC(=O)N(CCOCCNC(=O)c3cccc(O)c3O)C2=O)cc1 [MYC-N10]
c-MYC degradation (c-MYC [7]): caused degradation of c-MYC at higher concentrations; also recorded: Degradation was noted
Degradation of C-MYC, combination with MDM2 ligand 8312 (c-MYC [5]): √ (A black check mark indicates efficacy of 30% to 70% or higher protein degradation)
c-MYC degradation (c-MYC [6]): caused degradation of c-MYC at higher concentrations; also recorded: Degradation was noted

O=C(NCCNC(=O)c1cccc(O)c1O)c1ccc(Nc2ccc([N+](=O)[O-])c3nonc23)cc1 [MYC-N20]
c-MYC degradation (c-MYC [7]): negligible effects
Degradation of C-MYC, combination with MDM2 ligand 8310 (c-MYC [5]): √ (A black check mark indicates efficacy of 30% to 70% or higher protein degradation)
Degradation of C-MYC, combination with MDM2 ligand 8312 (c-MYC [5]): √ (A black check mark indicates efficacy of 30% to 70% or higher protein degradation)
c-MYC degradation (c-MYC [6]): caused degradation of c-MYC protein
